From US20190359681A1, “NOVEL MINOR HISTOCOMPATIBILITY ANTIGENS AND USES THEREOF” (UNIVERSITÉ DE MONTRÉAL, priority 2015, published 2019)

Each substance was assayed on T cells from MiHA-negative individuals (assay: Immunogenicity: T cells primed with MiHA-pulsed autologous dendritic cells, IFNγ ELISpot and intracellular cytokine staining). Conditions: T cells from four MiHA-negative individuals primed with autologous dendritic cells pulsed with synthetic MiHA; re-exposed to MiHA vs no peptide or irrelevant peptide.
Type: cell-based, human
Method: Determination of the immunogenicity of the identified MiHAs. T cells and monocytes were purified from 100-150×10^6 PBMCs obtained from MiHA-negative individuals using MACS® cell separation columns (Miltenyi Biotec®) or EasySep™ kits (Stemcell Technologies®). Monocyte-derived dendritic cells were generated as previously described (3) and matured with GM-CSF, IL-4, PGE2, TNFα, IL-1β, IL-6 and IFNγ. These dendritic cells were then irradiated at 40 Gy and pulsed with 2 μg/mL of the synthetic MiHA peptide (GLRX3-1^S, WDR27-1^L, MIIP-2^E, or RASSF1-1^S) or an irrelevant peptide (Epstein-Barr virus LMP2^426-434) that was used a negative control. Pulsed or unpulsed dendritic cells were then co-cultured with previously enriched autologous T cells (5×10^5/well) in 48-well plates in advanced RPMI medium supplemented with 10% of human serum, 1% of L-Glutamine and 30 ng/mL of IL-21 at a 1:4 (stimulator:effector) ratio. Supplemented media with IL-7 and IL-15 was added after 3, 5 and 7 days of culture and cells were transferred in 12-well plates and 6-well plates at day 5 and 7, respectively. After 10 days of culture, T cells were harvested to determine antigen reactivity with ELISpot for IFNγ and polyfunctional intracellular cytokine staining. Briefly, ELISpot analysis was performed according to the manufacturer's instructions (MABtech®) and intracellular staining was performed after restimulation with 5 μg/mL of peptide in the presence of Brefeldin A for 4 hours. […] Acquisition was performed with a BD™ LSR II flow cytometer and data were analyzed using Flowlogic™ software (Inivai Technologies®).
As a proof of principle, the immunogenicity of four novel MiHAs was tested: GLRX3-1^S, MIIP-2^E, RASSF1-1^S and WDR27-1^L (FIGS. 3A-3D). […] Read-out of antigen-reactivity was assessed by ELISpot (FIG. 3A) and intracellular staining assays (FIGS. 3B-3D).

Q: For EESAVPE/KRSW (EESAVPERSW) [MIIP-2^E], which “cytokine production by primed T cells (antigen-reactivity by ELISpot and intracellular staining)” value (“cytokine production by primed T cells” for short) is on record?
A: The value was “produced cytokines in a MiHA-specific fashion in all tested donors”.

Q: “FLS/PSANEHL [GLRX3-1^S, synthetic peptide tested for immunogenicity]” was tested. Which “cytokine production by primed T cells” value did it give?
A: The value was “produced cytokines in a MiHA-specific fashion in all tested donors”.

Q: Which “cytokine production by primed T cells” value does the source give for S/AEIEQKIKEY (SEIEQKIKEY) [RASSF1-1^S] here?
A: Its value is “produced cytokines in a MiHA-specific fashion in all tested donors”.
